Experimental data taken from patent US9849197B2, “Switching-type fluorescent nanoparticle probe, and fluorescent molecular imaging method using same” (KYOTO UNIVERSITY, priority 2011, dated 2017).

Assay: Change in fluorescence intensity of lactosome encapsulating fluorescent dye due to change in external environment 1
Type: physicochemical
Settings: lactosome encapsulating 20 mol % of the dye; for fluorescence intensity in the SDS solution: 5 wt % SDS 1:1, room temperature 30 minutes; for fluorescence intensity in the BSA solution: 5 wt % albumin (BSA) 1:1, room temperature 30 minutes; for fluorescence intensity in the plasma: plasma from male ddY mice 1:1, room temperature 30 minutes
Excerpt: In FIGS. 2(A) to 2(D), the horizontal axis represents wavelength and the vertical axis represents fluorescence intensity.

CC1(C)C(/C=C/C2=C(Cl)C(=C/C=C3/N(CCCCCC(=O)O)c4ccc5ccccc5c4C3(C)C)/CCC2)=[N+](CCO)c2ccc3ccccc3c21 [IC7-1]
recovered: fluorescence intensity in the SDS solution | fluorescence intensity in the BSA solution | fluorescence intensity in the plasma

CC1(C)C(/C=C/C=C/C=C/C=C2\N(CCCCS(=O)(=O)O)c3ccc4ccccc4c3C2(C)C)=[N+](CCCCS(=O)(=O)[O-])c2ccc3ccccc3c21 [ICG, indocyanine green]
recovered: fluorescence intensity in the SDS solution | fluorescence intensity in the BSA solution | fluorescence intensity in the plasma
